“And” between values parts separate entries of the source, which are not always exact repeats. Equal entries are not always repeated. Where two headings read alike, the source gives them in different places.
Legend:
[1] = In vivo pharmacokinetics, oral administration; parameters: species or system rat; conditions: for Kp at 8 h: eye ball / plasma, read-out: Eye Ball/Plasma Ratio(Kp); for bioavailability: oral, read-out: absolute bioavailability
Description: Male Sprague Dawley (SD) and Wistar rats (5-week old) were obtained from Charles River Laboratories Japan (Yokohama, Japan) and Japan SLC, Inc. (Hamamatsu, Japan), respectively. All animals were maintained in air-conditioned quarters with room temperatures of 20 ± 2 °C, relative humidity of 50 ± 10%, and an alternating 12 h light/dark cycle. The rats were fed a certified diet MF (Oriental Yeast Co., Tokyo, Japan) and water ad libitum. The studies were conducted in accordance with the guidelines provided by the Animal Care and Use Committee of Osaka University (Identifier DouyakuR01-3-1).
A test compound (NK-5962) solution in 50% DMSO/water was injected intravenously (i.v.) to male SD rats. A test compound suspension in 0.5% methyl cellulose was administered orally (p.o.) to male Wistar rats. The dosage of the test compound was 1 mg/2 mL/kg (i.v.) and 10 or 100 mg/10 mL/kg (p.o.). Blood samples were collected from the jugular vein at 5 and 15 min and 1 h (i.v.) by using pre-heparinized syringe after the intravenous administration or from the caudal vein at 15 and 30 min, 1, 2 and 4 h (p.o.) by using heparinized capillary tube after the oral administration. At 30 min and 2 h (i.v.) or 8 h (p.o.), blood samples were collected from the abdominal aorta under isoflurane anesthesia and the eye balls and the whole brain were excised immediately.
Plasma was prepared by centrifugation of the blood samples. Plasma and tissues were stored at −80 °C. The tissues were homogenized with a four-fold volume of phosphate-buffered saline to obtain a 20% tissue homogenate. Plasma and 20% tissue homogenates were precipitated with 4–20 volumes of acetonitrile/IS and centrifuged at 15,000× g at 4 °C for 10 min. The supernatants were analyzed by liquid chromatography and tandem mass spectrometry (LC-MS/MS). Standard non-compartmental analysis was performed to determine the pharmacokinetic parameters: elimination half-life (t1/2) and area under the concentration time curve from time zero to infinity (AUC∞). The absolute bioavailability (BA) of the oral dose was calculated as AUC∞ (p.o.)/AUC∞ (i.v.).
Liquid chromatography and tandem mass spectrometry instrument (LC-MS8060) equipped with Shimadzu Nexera series LC system (Shimadzu, Kyoto, Japan) were used. All compounds were analyzed in multi-reaction monitoring mode under electron spray ionization conditions. The analytical column used was a […] C18 MGIII (3 μm × 2.0 mmID × 35 mm; OSAKA SODA, Osaka, Japan) at 50 °C. The gradient mobile phase consisted of 0.1% formic acid in water (mobile phase A) and 0.1% formic acid in acetonitrile (mobile phase B) at a total flow rate of 1 mL/minute. The initial mobile phase composition was 10% B, which was held constant for 0.2 min, increased in a linear fashion to 90% B over 1 min, then held constant for 0.8 min, and then finally brought back to the initial condition of 10% B over 0.01 min and re-equilibrated for 1 min. The transitions (precursor ion > product ion) of NK-5962 and IS (methyl testosterone) are 433.2 > 279.2 and 303.1 > 109.1 (positive), respectively.

[2] = PAMPA (parallel artificial membrane permeability assay); format: in vitro ADME; conditions: PAMPA, pH 6.5; 0.2 μM test compound, 37 °C, 4 h
Description: In order to determine the passive membrane diffusion rates, the Corning Gentest Pre-coated PAMPA Plate System was used in the PAMPA test. […] The acceptor plate was then placed on top of the donor plate and incubated at 37 °C without agitation for 4 h. At the end of the incubation, the plates were separated and the solutions from each well of both the acceptor plate and the donor plate were transferred to 96-well plates and mixed with acetonitrile. The final concentrations of compound in both the donor wells and acceptor wells, as well as the concentrations of the initial donor solutions, were analyzed by LC-MS/MS. The permeability of the compound was calculated according to the previous report.

[3] = Hepatic microsomal stability assay, human; format: in vitro ADME
Description: (§1) The disappearance of the parent compound over time was measured by using the amount of drug at time zero as a reference. After 5 min of preincubation, 1 mM NADPH (final concentration, the same applies to the following) was added to a mixture containing 1 μM of the test compound, 0.2 mg/mL of rat or human liver microsomes (Sekisui XenoTech, LLC, Kansas City, KS), 1 mM EDTA, and 100 mM phosphate buffer (pH 7.4) and then incubated at 37 °C for 30 min by rotation at 60 rpm. An aliquot of 50 μL of the incubation mixture was sampled and added to 250 μL of chilled acetonitrile/internal standard (IS). After the centrifugation for 15 min at 3150× g at 4 °C, the supernatants were analyzed by LC-MS/MS. Hepatic microsomal stability (mL/min/kg, CLint) was calculated according to the previous report and 44.8 or 48.8 mg microsomal protein/g liver and 40.0 or 25.7 g liver/kg body weight were used as scaling factors for the rat or human, respectively.

[4] = Hepatic microsomal stability assay, rat; format: in vitro ADME
Description: as §1

[5] = 1 μM, 0.2 mg/mL microsomes, 1 mM NADPH, 30 min

With `CCCCN(CCCC)c1ccc(C=Cc2sc3ccccc3[n+]2CC(=O)O)cc1.[Br-]` [NK-5962, 2-[2-[4-(dibutylamino)phenyl]ethenyl]-3-carboxymethylbenzothiazolium bromide] the “maximum plasma concentration after the oral administration” value ([1]; excluding the 8 h values suspected of contamination) was 17 nM, the “maximum eye ball concentration expected after oral administration” value ([1]; from maximum plasma concentration and eye ball/plasma ratio 0.072) was 1.3 nM and the Kp at 8 h ([1]; male, Wistar, oral 10 mg/kg, single rat) was under 0.059. For the same compound, the Kp at 8 h ([1]; male, Wistar, oral 100 mg/kg, single rat) was 0.072, the concentration at 8 h ([1]; male, Wistar, rat, eye ball, po, 10 mg/kg, oral 10 mg/kg, single rat, read-out: Eye Ball Concentration) was under 0.1 nM and the concentration at 8 h ([1]; male, Wistar, rat, eye ball, po, 100 mg/kg, oral 100 mg/kg, single rat, read-out: Eye Ball Concentration) was 0.33 nM. The bioavailability ([1]; male, Wistar, rat, plasma, 10 mg/kg) was under 1%, the bioavailability ([1]; male, Wistar, rat, plasma, 100 mg/kg) was under 1% and the concentration at 0.25 h ([1]; male, Wistar, rat, plasma, po, 10 mg/kg, oral 10 mg/kg, 0.25 h, single rat) was 2.42 nM. The concentration at 0.5 h ([1]; male, Wistar, rat, plasma, po, 10 mg/kg, oral 10 mg/kg, 0.5 h, single rat) was 1.51 nM, the concentration at 1 h ([1]; male, Wistar, rat, plasma, po, 10 mg/kg, oral 10 mg/kg, 1 h, single rat) was 2.11 nM and the concentration at 2 h ([1]; male, Wistar, rat, plasma, po, 10 mg/kg, oral 10 mg/kg, 2 h, single rat) was 1.76 nM. The concentration at 4 h ([1]; male, Wistar, rat, plasma, po, 10 mg/kg, oral 10 mg/kg, 4 h, single rat) was 0.8 nM, the concentration at 8 h ([1]; male, Wistar, rat, plasma, po, 10 mg/kg, oral 10 mg/kg, single rat, * value deemed erroneous by contamination, read-out: Plasma Concentration) was 1.69 nM and the concentration at 0.25 h ([1]; male, Wistar, rat, plasma, po, 100 mg/kg, oral 100 mg/kg, 0.25 h, single rat) was 11.7 nM. The concentration at 0.5 h ([1]; male, Wistar, rat, plasma, po, 100 mg/kg, oral 100 mg/kg, 0.5 h, single rat) was 14.6 nM, the concentration at 1 h ([1]; male, Wistar, rat, plasma, po, 100 mg/kg, oral 100 mg/kg, 1 h, single rat) was 17 nM and the concentration at 2 h ([1]; male, Wistar, rat, plasma, po, 100 mg/kg, oral 100 mg/kg, 2 h, single rat) was 17.2 nM. For the same compound, the concentration at 8 h ([1]; male, Wistar, rat, plasma, po, 100 mg/kg, oral 100 mg/kg, single rat, * value deemed erroneous by contamination, read-out: Plasma Concentration) was 4.57 nM, the “Plasma Concentration” value ([1]; oral 10 mg/kg, 0.25 h, single rat, 10 mg/kg) was 1.71 nM and the “Plasma Concentration” value ([1]; oral 10 mg/kg, 0.5 h, single rat, 10 mg/kg) was 1.90 nM. For the same compound, the “Plasma Concentration” value ([1]; oral 10 mg/kg, 1 h, single rat, 10 mg/kg) was 2.26 nM, the “Plasma Concentration” value ([1]; oral 10 mg/kg, 2 h, single rat, 10 mg/kg) was 1.51 nM and the “Plasma Concentration” value ([1]; oral 10 mg/kg, 4 h, single rat, 10 mg/kg) was 1.20 nM. The “Plasma Concentration” value ([1]; oral 100 mg/kg, 0.25 h, single rat, 100 mg/kg) was 6.17 nM, the “Plasma Concentration” value ([1]; oral 100 mg/kg, 0.5 h, single rat, 100 mg/kg) was 11.15 nM and the “Plasma Concentration” value ([1]; oral 100 mg/kg, 1 h, single rat, 100 mg/kg) was 17.43 nM. For the same compound, the “Plasma Concentration” value ([1]; oral 100 mg/kg, 2 h, single rat, 100 mg/kg) was 11.51 nM, the “Plasma Concentration” value ([1]; oral 100 mg/kg, 4 h, single rat, 100 mg/kg) was 11.52 nM and 5.75 nM and the concentration at 8 h ([1]; oral 100 mg/kg, single rat, 100 mg/kg, read-out: Eye Ball Concentration) was 0.40 nM. For the same compound, the Papp at 4 h, 0.2 μM [2] was 0.31 ×10⁻⁶ cm/s, the “Microsome Metabolic Stability Human” value [3, 5] was 54.5 µL/min/mg and the “metabolic stability (in words)” value ([3]; human liver microsomes) was “moderate metabolic stability”. The “stability in the absence of the coenzyme NADPH” value ([3]; human liver microsomes, without NADPH) was “stable”, the CLint scaled at 1 μM ([3]; human, liver microsomes, pH 7.4, 1 μM, 0.2 mg/mL microsomes, 1 mM NADPH, 30 min, read-out: Microsome Metabolic Stability Human (CLint)) was 68.3 mL/min/kg and the “Microsome Metabolic Stability Rat” value [4, 5] was 151.9 µL/min/mg. For the same compound, the “metabolic stability (in words)” value ([4]; rat liver microsomes) was “moderate metabolic stability”, the “stability in the absence of the coenzyme NADPH” value ([4]; rat liver microsomes, without NADPH) was “stable” and the CLint scaled at 1 μM ([4]; rat, liver microsomes, pH 7.4, 1 μM, 0.2 mg/mL microsomes, 1 mM NADPH, 30 min, read-out: Microsome Metabolic Stability Rat (CLint)) was 272 mL/min/kg.
